# Calls of active or inactive are those of the source. The calls are words filed in the database; no cut-off is given here.
# Tests used:
# [1] = AUC (0 to t) in BALB/c mouse at 10 mg/kg, po by LC/MS-MS analysis; type: ADME, organism-based; design: dose 10 mg/kg; conditions: in vivo
# [2] = Cmax in BALB/c mouse at 2 mg/kg, iv by LC/MS-MS analysis; type: ADME, organism-based; design: route intravenous, dose 2 mg/kg; conditions: in vivo
# [3] = AUC (0 to infinity) in BALB/c mouse at 2 mg/kg, iv by LC/MS-MS analysis; type: ADME, organism-based; design: route intravenous, time infinity, dose 2 mg/kg; conditions: in vivo
# Homo sapiens [4] = organism: Homo sapiens; assay: Effect on recombinant AMPKalpha1beta1gamma1 (unknown origin) phosphorylation
# [5] = AUC (0 to t) in BALB/c mouse at 2 mg/kg, iv by LC/MS-MS analysis; type: ADME, organism-based; design: dose 2 mg/kg; conditions: in vivo
# [6] = AUC (0 to infinity) in BALB/c mouse at 10 mg/kg, po by LC/MS-MS analysis; type: ADME, organism-based; design: route oral, time infinity, dose 10 mg/kg; conditions: in vivo
# Mus musculus [7] = assay: Hepatoprotective activity in LPS/D-GalN-induced fulminant hepatic failure BALB/c mouse model assessed as changes in liver histology at 200 mg/kg, IG once daily for 3 days by H/E staining based analysis; type: functional, organism-based; conditions: time 3.0 day
# THP-1 [8] = assay: Cytotoxicity against human THP-1 cells assessed as reduction in cell viability at 1 to 10 uM; type: cell-based; conditions: thp-1, 10 µM
# THP-1 [9] = assay: Antiinflammatory activity in human THP-1 cells assessed as reduction in LPS-induced TNF alpha secretion at 10 uM incubated for 12 hrs measured by ELISA; type: functional, cell-based
# Mus musculus [10] = assay: Hepatoprotective activity in LPS/D-GalN-induced fulminant hepatic failure BALB/c mouse model assessed as inhibition of serum ALT level at 200 mg/kg, IG once daily for 3 days; type: functional, organism-based; conditions: time 3.0 day
# THP-1 [11] = assay: Antiinflammatory activity in human THP-1 cells assessed as reduction in LPS-induced IL6 secretion at 10 uM incubated for 12 hrs measured by ELISA; type: functional, cell-based
# Mus musculus [12] = assay: Hepatoprotective activity in LPS/D-GalN-induced fulminant hepatic failure BALB/c mouse model assessed as inhibition of serum AST level at 200 mg/kg, IG once daily for 3 days; type: functional, organism-based; conditions: time 3.0 day
# Mus musculus [13] = assay: Antiinflammatory activity against LPS/D-GalN-induced fulminant hepatic failure BALB/c mouse model assessed as inhibition of IL-6 mRNA expression in liver at 200 mg/kg, IG once daily for 3 days by RT-PCR analysis; type: functional, organism-based; conditions: time 3.0 day
# Mus musculus [14] = assay: Antiinflammatory activity against LPS/D-GalN-induced fulminant hepatic failure BALB/c mouse model assessed as inhibition of TNFalpha mRNA expression in liver at 200 mg/kg, IG once daily for 3 days by RT-PCR analysis; type: functional, organism-based; conditions: time 3.0 day
# [15] = Half life in BALB/c mouse at 2 mg/kg, iv by LC/MS-MS analysis; type: ADME, organism-based; conditions: in vivo
# [16] = Metabolic stability in human liver microsomes assessed as half life in presence of NADPH by LC-MS analysis; type: ADME, Microsome
# [17] = Tmax in BALB/c mouse at 2 mg/kg, iv by LC/MS-MS analysis; type: ADME, organism-based; conditions: in vivo
# Homo sapiens [18] = organism: Homo sapiens; assay: Effect on recombinant AMPK alpha2beta2gamma1 (unknown origin) phosphorylation
# [19] = Tmax in BALB/c mouse at 10 mg/kg, po by LC/MS-MS analysis; type: ADME, organism-based; conditions: in vivo
# [20] = Bioavailability in BALB/c mouse at 10 mg/kg, po by LC/MS-MS analysis; type: ADME, organism-based; conditions: in vivo
# [21] = Cmax in BALB/c mouse at 10 mg/kg, po by LC/MS-MS analysis; type: ADME, organism-based; design: route oral, dose 10 mg/kg; conditions: in vivo
# [22] = Metabolic stability in mouse liver microsomes assessed as half life in presence of NADPH by LC-MS analysis; type: ADME, Microsome
# [23] = Half life in BALB/c mouse at 10 mg/kg, po by LC/MS-MS analysis; type: ADME, organism-based; conditions: in vivo
structure (smiles),measurement,setting,value
CC1(C)CC[C@]2(C(=O)O)CC[C@]3(C)C(=C2C1)CC[C@@H]1[C@@]2(C)CC[C@H](O[C@@H]4OC[C@H](O)[C@H](O)[C@H]4O)C(C)(C)[C@@H]2CC[C@]13C,AUC(0-t),[1],1670 ng·h/mL
same,Cmax,[2],4410 ng/mL
same,AUC(0-inf),[3],1360 ng·h/mL
same,Activity,Homo sapiens [4],inactive
same,AUC(0-t),[5],1350 ng·h/mL
same,AUC(0-inf),[6],1690 ng·h/mL
same,Activity,Mus musculus [7],Active
same,Activity,THP-1 [8],Non-Toxic
same,Activity,THP-1 [9],Active
same,Activity,Mus musculus [10],Active
same,Activity,THP-1 [11],Active
same,Activity,Mus musculus [12],Active
same,Activity,Mus musculus [13],Active
same,Activity,Mus musculus [14],Active
same,half-life,[15],21 min
same,half-life,[16],> 120 min
same,Tmax,[17],4.8 min
same,Activity,Homo sapiens [18],inactive
same,Tmax,[19],25.2 min
same,bioavailability,[20],24.7%
same,Cmax,[21],1840 ng/mL
same,half-life,[22],> 120 min
same,half-life,[23],21 min

# From ChEMBL document CHEMBL4732083, “Synthesis and anti-inflammatory activity of saponin derivatives of δ-oleanolic acid” (Eur J Med Chem, 2021)
